Results on eight compounds are retold here after PubChem BioAssay (NCI).

The structures appear in SMILES notation. Where “and” joins values, the source holds several entries; their conditions need not be identical. Equal values may be shown once.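 Values below derive from 48-hour exposures of cells grown in 96-well plates, with endpoints linearly interpolated between the two concentrations bracketing the appropriate inhibition level. Here, GI50 denotes the concentration required for 50% inhibition of growth. At the TGI there is no net growth.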

What all share (assay): NCI-60 cell line screen, 48 h
The test system of assay [1] is UACC-62 melanoma.
In assay [2] the test system is NCI/ADR-RES ovarian.
Assay [3] concerns MCF7 breast.
Assay [4] concerns A498 renal.
Assay [5] deals with CAKI-1 renal.
The subject of assay [6] is MOLT-4 leukemia.
The test system of assay [7] is M14 melanoma.
The test system of assay [8] is UACC-257 melanoma.
The subject of assay [9] is SK-MEL-28 melanoma.
The subject of assay [10] is HCC-2998 colon.

As for `CC(=O)N1N=C(c2ccc(Nc3nc(Nc4ccc(F)cc4)nc(Nc4ccc(F)cc4)n3)cc2)CC1c1ccc(N(C)C)cc1` (configuration not stated), the GI50 in assay [1] is 2.95 µM; in [2], 4.72 µM; in assay [3], 3.23 µM; in [4], 5.58 µM; in [5] it was 15.6 µM; in assay [6] it was 1.57 µM. In addition, the GI50 in assay [7] was 2.79 µM; in assay [8] it was 7.14 µM; in assay [9] it was 4.33 µM; in assay [10] it was 15.9 µM. Also, the TGI in assay [1] came to 12.3 µM; in assay [2] it was 33.3 µM; in assay [3], 13.7 µM; in assay [4] it was 26.8 µM; in assay [5], 93.1 µM; in assay [6] it was 5.7 µM. Further, the TGI in assay [7] is 9.79 µM; in [8], 23.5 µM; in assay [9], 19.3 µM; in assay [10], over 100 µM.

Take `Cn1c2c(c3ccccc31)CCN1C(=O)CCC21` (configuration not stated): the TGI in assay [2], in assay [3], in assay [4], in [5], in assay [6] and in assay [7] was over 10 µM throughout. Further, the TGI in [8], in assay [9] and in [10] was over 10 µM in each case.

For `C#CCN(c1ccc(C(=O)N[C@@H](CCC(=O)N[C@H](CCC(=O)O)C(=O)O)C(=O)O)cc1)C1CCc2cc3nc(CO)[nH]c(=O)c3cc21` (some centres not stated), the GI50 in [1] was 7.33 µM; in assay [2], 8.58 µM; in assay [3], 0.899 µM; in [5] it was 6.13 µM; in assay [6], 31.6 µM; in assay [7], 7.97 µM. Besides, the GI50 in assay [8] was over 100 µM; in [9] it was over 100 µM; in [10], 1.32 µM. Moreover, the TGI was over 64.1 µM in [1]; over 100 µM in assay [2]; over 100 µM in assay [3]; over 100 µM in assay [4]; over 100 µM in assay [5]; over 100 µM in assay [6]. The TGI in assay [7], in [8], in assay [9] and in assay [10] was over 100 µM each time.

As for `Cc1cn(Cc2ccc(C34CC5CC(CC(C5)C3)C4)c(O)c2)c(=O)[nH]c1=O`, the GI50 in assay [1] was 7.34 µM; in assay [2], 11.3 µM; in assay [3], 7.96 µM; in assay [4], 4.33 µM; in assay [5], 10.1 µM; in [6] it was 7.5 µM. Moreover, the results for the GI50 in [7], in assay [9] and in [10] were 11.5 µM, 6.78 µM and 9.45 µM, respectively. The TGI amounted to 20.4 µM in assay [1]; 27.2 µM in assay [2]; 72.9 µM in assay [3]; 17.8 µM in assay [4]; 23.3 µM in assay [5]; 27.5 µM in assay [6]. Moreover, the values for the TGI in [7], in [9] and in assay [10] were 26.9 µM, 23.7 µM and 21.4 µM, respectively.

With `O=C(NCC1CCCO1)c1ccc(NC2=C(Cl)C(=O)N(Cc3ccccc3)C2=O)cc1` (configuration not stated), the GI50 in assay [1] was 10.8 µM; in [2], 23.9 µM; in assay [3] it was 4.39 µM; in assay [4] it was 22.2 µM; in assay [5], 1.79 µM; in assay [6], 4.49 µM. The GI50 in assay [7] is 11.2 µM; in assay [8], 17 µM; in [9] it was 18.6 µM; in [10] it was 13.1 µM. Besides, the TGI was 24.3 µM in assay [1]; 51.4 µM in assay [2]; 26.6 µM in assay [3]; 41.9 µM in assay [4]; 3.34 µM in assay [5]; over 100 µM in assay [6]. Moreover, the TGI came out at 23.4 µM in assay [7], 45.6 µM in assay [8], 41.1 µM in [9] and 27.1 µM in assay [10].

As for `CCCCCCCCCC[C@H](O)[C@H](O)CC[C@@H](O)[C@H]1CC[C@@H]([C@H]2CC[C@H](CCCCCCC[C@@H](O)CC3=C[C@H](C)OC3=O)O2)O1`, the TGI is 5.95 µM in assay [1]; over 100 µM in assay [2]; 77.6 µM in assay [3]; 87.1 µM in assay [4]; 9.67 µM and 89 µM in [5]; 94.7 µM in assay [6]. Moreover, the TGI is 58.4 µM in assay [7], over 100 µM in assay [8], over 100 µM in assay [9] and 47 µM in [10]. For the same compound, the GI50 in assay [2] was 18.2 µM; in [3] it was 19.2 µM; in assay [4], 17.7 µM; in [5], 32.4 µM; in assay [6], 23.9 µM; in assay [7], 23.1 µM. Besides, the GI50 is 9.51 µM in assay [8] and 47 µM in assay [9].

As to `CCN(Cc1cccc(Cl)c1)c1ccc(CO)c(Cl)c1`, the GI50 in assay [1] is 0.116 µM; in assay [2], 10.8 µM; in assay [3], 0.329 µM; in [4], 0.029 µM; in assay [5] it was 0.724 µM; in assay [6], 12.1 µM. Also, the GI50 in assay [7] is 12.6 µM; in assay [8], 0.134 µM; in assay [9], 14.5 µM; in assay [10] it was 11.3 µM. Further, the TGI in assay [1] worked out at 1.07 µM; in assay [2], 23.8 µM; in [3], 11.4 µM; in assay [4], 0.166 µM; in assay [5], 10.1 µM; in [6], 34.7 µM. Further, the TGI in [7] is 28.6 µM; in [8], 0.404 µM; in assay [9], 28.7 µM; in assay [10], 24.8 µM.

Regarding `CC(C)CCCCCCCCCCCCC(=O)NCC(=O)NC1C(O)C(O)C(Nc2ncnc3nc[nH]c23)OC1C(O)CO` (configuration not stated), the GI50 is under 1e-05 µM in [1]; 0.00287 µM and 0.0113 µM in assay [3]; 0.005 µM in assay [4]; under 1e-05 µM in assay [5]; under 1e-05 µM in [7]; 0.00334 µM and 0.0102 µM in assay [9]. For the same compound, the GI50 in assay [10] is under 1e-05 µM. In addition, the TGI was 0.124 µM and 0.0422 µM in [2]; 0.394 µM and 0.352 µM in [3]; 0.0123 µM and 0.0132 µM in [4]; 0.0011 µM and 0.000619 µM in assay [5]; 0.153 µM and 0.43 µM in assay [6]; 0.37 µM and 0.797 µM in assay [9].
